Literature values as cited in patent US20210069098A1, “RIBAVIRIN […] COMPOSITION FOR TREATING VIRAL DISEASES” (MT RESEARCH, LLC, priority 2009, published 2021).
Where two headings read alike, the source gives them in different places.

Assays:
[1] = nebulized neat perflubron
[2] = PLV

In the case of `CC(=O)N[C@@H](CS)C(=O)O` [N-acetylcysteine (NAC), N-acetylcysteine], the survival (Influenza; in vivo) is given as “improve survival”.
For `FC(F)(F)C(F)(F)C(F)(F)C(F)(F)C(F)(F)C(F)(F)C(F)(F)C(F)(F)Br` [perflubron], the gas exchange [1] is listed as “efficacy for gas exchange”, the “reduction in ventilator days or mortality” value ([2]; low dose 10 mL/kg or high dose 20 mL/kg) is listed as “failed to demonstrate a reduction in ventilator days or mortality” and the complications ([2]; low dose or high dose, hypotension, hypoxemia and pneumothorax) is listed as “more complications”.
In the case of “superoxide dismutase [superoxide dismutase (SOD)]”, the survival (Influenza; […]) is listed as “improve survival”.
